From US20100178277A1, “METHODS AND COMPOSITIONS FOR STIMULATING CELLS” (MEDIVATION NEUROLOGY, INC., priority 2007, published 2010) come the findings set out here.

Experiment [1] relates to BrdU positive cells/neurons in the hippocampus and dentate gyrus. The experiment is described as follows: Neurogenesis in healthy rats: BrdU / NeuN immunohistochemistry of hippocampus and dentate gyrus. The class given is in vivo, Wistar rats. Conditions: 14 days. From the text:
Wistar rats were obtained from Charles River or Harlan Winkelmann (Germany). Male rats were approximately 3 months old upon arrival at the animal colony. Animals were kept in an animal facility under standardized conditions and according to the animal welfare regulations of the Ministry of Science of the Austrian government. A record of bodyweights was maintained. The animals were allowed to acclimatize for at least one week prior to any experimental manipulations. Twelve rats per group were maintained on a 12 hour light/dark cycle. Three backup animals were maintained in order to compensate for animal loss. All rats were housed in groups of four per cage and had ad libitum access to food and water. Rats were randomly allocated to four different treatment groups receiving intraperitoneal (i.p.) 5-bromo-2-deoxyuridine (BrdU, Sigma #B9285, 50 mg/kg body weight (b.w.)) and either (i) Dimebon at 10 mg/kg b.w./twice a day; (ii) Dimebon at 30 mg/kg b.w./twice a day; (iii) Dimebon at 60 mg/kg b.w./twice a day; or (iv) 0.2 mL vehicle (saline) twice a day. Treatment with BrdU, a synthetic nucleoside analog of thymidine, is commonly used to detect proliferating cells in living tissues such as the brain. Dimebon and vehicle were administered orally twice a day in a volume of 0.2 mL. BrdU was administered every other day. The daily Dimebon or vehicle treatment was performed several minutes before BrdU treatment. On day 14, animals were sacrificed approximately four hours after the last Dimebon treatment and one day after the last BrdU treatment. Diluted dimebon was prepared fresh daily. At sacrifice, the rats were sedated using standard anesthesia. After transcardial perfusion with phosphate buffered saline (PBS) followed by 4% Paraformaldehyde/PBS, the brain from each rat was carefully removed, post-fixed in 4% Paraformaldehyde/PBS for one hour, transferred to 15% sucrose for cryoprotection, and shock-frozen in liquid isopentane. Brains were stored at −80° C. until cryo-cutting. The brains were cut sagittally using a cryotome and stored at −20° C. until staining. Five layers were cut with 10 sections at 20 micrometers per layer with an interlayer slice gap of 100 micrometers. Standard Cresyl-Violett staining was performed on two consecutive slices per animal. BrdU immunohistochemistry was quantified to provide a morphological overview of cell division. For the evaluation of BrdU positive cells/neurons, sections were processed by double-incubation with mouse anti-Neuronal Nuclei (NeuN) monoclonal antibody (Chemicon) and anti-BrdU (Abcam). One section per layer was treated in a three-day double-incubation with mouse anti-Neuronal Nuclei (NeuN) monoclonal antibody 1:800 (Chemicon, Hofheim. Germany) and anti-BrdU (sheep polyclonal to BrdU) 1:500 (Abcam, Cambridge, UK). The secondary antibodies were a Cy-3-conjugated pure affine goat anti-mouse IgG (H+L) 1:200 (Jackson ImmunoResearch, Cambridgeshire, UK) and a Cy 2-conjugated pure affine F(ab′)2 fragment of donkey anti-sheep IgG (H+L) 1:100 (Jackson ImmunoResearch, Cambridgeshire, UK). Briefly, the anti-NeuN antibody was incubated overnight at 4° C., the Cy3 antibody was incubated the next day for one hour at room temperature, followed by the anti-BrdU antibody overnight at 4° C. and the Cy2 antibody for one hour at room temperature. To open the cell surfaces before the BrdU incubation, slices were treated with 2N HCl for 15 minutes at 40° C. and then washed for 20 minutes in a methanol mixture (60 ml methanol, 2 ml H2O2, and 0.6 ml Triton X) to block endogenous peroxidases. Niss1 staining was used as an overview staining. Tiled images of the sagittal slice including the cortex and the hippocampus were recorded at 200-fold magnification. Each single image used a PCO PixelFly camera mounted on a NikonE800 microscope equipped with an software controlled (StagePro) automatic table. Both fluorescent colors, red for NeuN and green for BrdU, were recorded separately. For quantification, the images were merged. […]

In experiment [2] the test system is primary rat hippocampal neurons. The experiment is described as follows: Neurite outgrowth of primary rat hippocampal neurons cultured with dimebon. The experiment is classed as cell-based. How it is done:
To isolate hippocampal neurons, a female rat of 19 days gestation was killed by cervical dislocation, and the fetuses were removed from the uterus. Their brains were removed and placed in ice-cold medium of Leibovitz (L15, Gibco, Invitrogen). Meninges were carefully removed, and the hippocamps were dissected out. The hippocampal neurons were dissociated by trypsinization for 30 minutes at 37° C. (Trypsin-EDTA; Gibco) in the presence of DNAse I (Roche; Meylan). The reaction was stopped by the addition of DMEM (Gibco) cell culture medium with 10% of FBS (Gibco). The suspension was triturated with a 10-ml pipette using a needle syringe 21G and centrifuged at 350×g for 10 minutes at room temperature. The resulting pellet is resuspended in culture medium containing Neurobasal medium (Gibco) supplemented with 2% B27 supplement (Gibco) and 2 mM of glutamine (Gibco). Viable cells were counted in a Neubauer cytometer using the trypan blue exclusion test (Sigma) and seeded on the basis of 30,000 cells per Petri dish (Nunc) precoated with poly-L-lysine. Cells were allowed to adhere for two hours and maintained in a humidified incubator at 37° C. in 5% CO2-95% air atmosphere. After adhesion, a vehicle control or dimebon was added at different concentrations to the medium. BDNF (1.85 nM) was used as a positive control for neurite growth. After treatment, cultures were washed in phosphate-buffered saline (PBS, Gibco) and fixed in glutaraldehyde 2.5% in PBS. Cells were fixed after 3 days growth. Several pictures (˜80) of cells with neurites without any branching were taken per condition with a camera (Coolpix 995; Nikon) fixed on microscope (Nikon, objective 40×). The length measurements were made by analysis of the pictures using software from Image-Pro Plus (France). The results were expressed as mean (s.e.m.). Statistical analysis of the data was performed using one way analysis of variance (ANOVA). […]
The effect of Dimebon (100 nM) on neurite outgrowth using primary hippocampal neurons was evaluated by measuring neurite length (expressed % of control, FIG. 5A) and number of neurites per neuron (FIG. 5B). The effects of vehicle, Dimebon and BDNF (50 ng/mL) were determined after incubations of 24 hours, 48 hours and 72 hours. […]
(§1) Primary neuronal cultures were prepared from rat fetal tissue on the gestation days indicated from the cortex (day 17), hippocampus (day 19) or spine (day 15). […] Neurite length was calculated using Image-Pro Plus. […] Mitochondrial effects were assessed with primary rat hippocampal cells treated with Dimebon or vehicle and 0.25 μM ionomycin. Dimebon's effects on JC-1 mitochondrial staining was also assessed in ionomycin-treated human neuroblastoma cells (SK—N—SH). Mitochondrial accumulation of JC-1 was assessed by fluorescence microscopy.

Experiment [3] concerns primary rat cortical neurons. The experiment is described as follows: Neurite outgrowth of primary rat cortical neurons cultured with dimebon. The class given is cell-based. Particulars: low concentrations (picomolar and nanomolar); 3 days growth; FIG. 1. How it is done:
(§2) Standard methods were used to isolate cortical neurons and spinal motor neurons. For the isolation of primary rat cortical neurons, the fetal brain from a pregnant rat at 17 days of gestation was prepared in Leibovitz's medium (L15; Gibco). The cortex was dissected out, and the meninges were removed. Trypsin (Gibco) was used to dissociate cortical neurons for 30 minutes at 37° C. with DNAse I. The cells were triturated in a 10 mL pipette in Dulbecco's Modified Eagle Media (“DMEM”; Gibco) with 10% Fetal Bovine Serum (“FBS”) (Gibco) and centrifuged at 350×g for 10 minutes at room temperature. The cells were suspended in Neurobasal medium supplemented with 2% B27 (Gibco) and 0.5 mM L-glutamine (Gibco). […] The results were expressed as mean (s.e.m.). […]
as §1

The test system of experiment [4] is primary rat spinal motor neurons. In words: Neurite outgrowth of primary rat spinal motor neurons cultured with dimebon. Particulars: picomolar and nanomolar concentrations; FIG. 4. The class given is cell-based. Here is the method: as §2, §1
Experiment [5] has as its system primary rat hippocampal cells. The experiment is described as follows: Mitochondrial JC-1 staining in ionomycin-treated primary rat hippocampal cells. The experiment is classed as cell-based. Conditions: Dimebon 0.25 nM and 2.5 nM; 0.25 μM ionomycin; compared with vehicle treatment. Here is the method:
(§3) Primary neuronal cultures were prepared from rat fetal tissue on the gestation days indicated from the cortex (day 17), hippocampus (day 19) or spine (day 15). Neurons were dissociated by trypsinization in the presence of DNAseI and trituration and cultured in Neurobasal (Gibco) medium supplemented with 2% B27 (Gibco), 0.5 mM L-Glutamine. Cells were plated on poly L-lysine coated plates, allowed to adhere and maintained at 37° C. in 5% CO2-95% air and then test compound was added for a period of 3 days. Cultures were fixed using 2.5% glutaraldehyde. Approximately 80 digital images were taken per condition. Neurite length was calculated using Image-Pro Plus. Each analysis was performed with two separate culture studies. Dimebon was tested at concentrations of 0.01-500 nM and BDNF at 50 ng/mL. Mitochondrial effects were assessed with primary rat hippocampal cells treated with Dimebon or vehicle and 0.25 μM ionomycin. Dimebon's effects on JC-1 mitochondrial staining was also assessed in ionomycin-treated human neuroblastoma cells (SK—N—SH). Mitochondrial accumulation of JC-1 was assessed by fluorescence microscopy.

The test system of experiment [6] is human neuroblastoma cells (SK—N—SH). In words: Mitochondrial JC-1 staining in ionomycin-treated SK-N-SH cells. The experiment is classed as cell-based. Here is the method: as §3

With `Cc1ccc2c(c1)c1c(n2CCc2ccc(C)nc2)CCN(C)C1.Cl.Cl` [Dimebon, 2,8-dimethyl-5-(2-(6-methyl-3-pyridyl)-ethyl)-2,3,4,5-tetrahydro-1H-pyrido[4,3-b]indole dihydrochloride], the “BrdU positive progenitor cells in the dentate gyrus” value was “significant increase” in experiment [1] (30 mg/kg Dimebon vs vehicle, p=0.05, FIG. 7A) and “significant increase” in experiment [1] (60 mg/kg Dimebon vs vehicle-treated group, p=0.05, FIG. 7A). Moreover, the “BrdU positive progenitor cells in the hippocampus” value in experiment [1] (60 mg/kg Dimebon vs vehicle-treated group, p=0.05, FIG. 6A) is reported as “significant increase”. Besides, the “BrdU positive neurons (NeuN and BrdU IR) in the hippocampus” value in experiment [1] (60 mg/kg Dimebon vs vehicle-treated group, p=0.05, FIG. 6B) is listed as “significant increase”. The “BrdU positive neurons (NeuN and BrdU IR) in the dentate gyrus” value in experiment [1] (60 mg/kg Dimebon vs vehicle-treated group, p=0.05, FIG. 7B) is listed as “significant increase”. Also, in experiment [1] (rats, oral twice a day, FIG. 6A), the “total number of BrdU staining cells in the hippocampus” value is recorded as “increases”. In experiment [1] (rats, oral twice a day, FIG. 6B), the “number of BrdU staining neurons in the hippocampus” value is “increases”. Further, the “total number of BrdU staining cells in the dentate gyrus” value in experiment [1] (rats, oral twice a day, FIG. 7A) was “increases”. The “number of BrdU staining neurons in the dentate gyrus” value in experiment [1] (rats, oral twice a day, FIG. 7B) is “increases”. Besides, in experiment [2] (Dimebon 100 nM vs BDNF 50 ng/mL, 24, 48, 72 hours), the “effect on neurite length and number of neurites per neuron relative to BDNF” value was “comparable”. Besides, in experiment [2] (Dimebon 100 nM, incubations of 24, 48 and 72 hours, compared to vehicle, FIG. 5A), the neurite length result is listed as “increased”. For the same compound, the “number of neurites per neuron” value in experiment [2] (Dimebon 100 nM, incubations of 24, 48 and 72 hours, compared to vehicle, FIG. 5B) is reported as “increased”. For the same compound, the “neurite outgrowth of primary rat hippocampal neurons” value in experiment [2] (picomolar and nanomolar concentrations, 3 days growth, FIG. 3) was “stimulated”. Also, in experiment [3], the “neurite outgrowth of primary rat cortical neurons” value is listed as “stimulated”. Moreover, the “neurite outgrowth of primary rat spinal motor neurons” value in experiment [4] is “stimulated”. The “mitochondrial JC-1 staining” value in experiment [5] and in experiment [6] was “preserved” in each case.
